This note sets out measurements from patent publication US9771369B2, “Compounds and methods for kinase modulation, and indications therefor” (Plexxikon Inc., priority 2014, dated 2017).

Chain of c-Kit kinase (P10721 26-976): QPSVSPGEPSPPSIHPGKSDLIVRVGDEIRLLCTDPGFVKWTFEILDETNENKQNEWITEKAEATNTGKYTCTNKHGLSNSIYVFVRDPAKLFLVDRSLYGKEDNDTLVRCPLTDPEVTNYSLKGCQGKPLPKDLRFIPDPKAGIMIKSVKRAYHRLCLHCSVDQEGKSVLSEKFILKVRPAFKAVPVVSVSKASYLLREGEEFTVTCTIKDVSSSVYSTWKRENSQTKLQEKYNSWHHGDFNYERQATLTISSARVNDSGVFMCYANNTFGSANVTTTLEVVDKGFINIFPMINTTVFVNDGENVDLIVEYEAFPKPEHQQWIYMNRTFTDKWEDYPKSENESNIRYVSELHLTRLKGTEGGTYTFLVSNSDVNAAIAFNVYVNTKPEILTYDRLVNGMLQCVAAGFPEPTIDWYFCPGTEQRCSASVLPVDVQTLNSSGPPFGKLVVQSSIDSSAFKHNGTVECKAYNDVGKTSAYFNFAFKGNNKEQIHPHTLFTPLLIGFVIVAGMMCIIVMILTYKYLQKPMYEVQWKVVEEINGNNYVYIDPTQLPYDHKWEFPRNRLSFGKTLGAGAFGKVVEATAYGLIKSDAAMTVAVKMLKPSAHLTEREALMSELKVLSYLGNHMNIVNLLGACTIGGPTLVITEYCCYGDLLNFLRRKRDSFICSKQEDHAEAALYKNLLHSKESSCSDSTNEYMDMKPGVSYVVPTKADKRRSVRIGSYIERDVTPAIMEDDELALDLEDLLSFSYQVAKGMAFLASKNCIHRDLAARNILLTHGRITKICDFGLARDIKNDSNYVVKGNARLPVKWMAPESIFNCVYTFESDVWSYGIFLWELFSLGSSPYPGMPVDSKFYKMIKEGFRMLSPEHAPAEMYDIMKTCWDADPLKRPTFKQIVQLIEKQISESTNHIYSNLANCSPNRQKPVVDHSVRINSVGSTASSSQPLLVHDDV

The test deals with c-Kit kinase (Homo sapiens (Human), UniProt P10721). Briefly: c-Kit biochemical assay (AlphaScreen kinase activity). In short, it runs like this:
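IC50 values come from 8-point, 1:3 compound titrations measuring inhibition of peptide phosphorylation by c-Kit (commercial or His-tagged E. coli-expressed) over 1 h at room temperature, read by AlphaScreen PY30/streptavidin beads. Low-ATP version: 10 μM ATP, 100 nM biotin-(E4Y)3; high-ATP version: 100 μM ATP, 30 nM biotin-(E4Y)10.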
For orientation: Bead proximity is the source of the signal in Alpha formats.
Broadly, the IC50 is the concentration that inhibits the measured activity by half. Low values mean inhibition by little substance, high ones a need for much substance. In turn, `COc1cc(-c2cc3c(N4CCC(c5nc(C)c(-c6ccc(C(F)(F)F)cc6)[nH]5)CC4)ncnc3[nH]2)ccn1` [P-3149, 6-(2-methoxy-4-pyridyl)-4-[4-[4-methyl-5-[4-(trifluoromethyl)phenyl]-1H-imidazol-2-yl]-1-piperidyl]-7H-pyrrolo[2,3-d]pyrimidine] yielded a concentration for half-maximal inhibition (IC50) of 1 to 10 µM.
Turning to `Cc1cc2c(N3CCC(C)(c4nc(C)c(-c5ccc6c(c5)OCO6)[nH]4)CC3)ncnc2[nH]1` [P-3150, 4-[4-[5-(1,3-benzodioxol-5-yl)-4-methyl-1H-imidazol-2-yl]-4-methyl-1-piperidyl]-6-methyl-7H-pyrrolo[2,3-d]pyrimidine], the half-inhibitory concentration (IC50) was 1 to 10 µM.
With `Cc1cc2c(N3CCC(C)(c4nc(C)c(-c5ccc6c(c5)OCCO6)[nH]4)CC3)ncnc2[nH]1` [P-3151, 4-[4-[5-(2,3-dihydro-1,4-benzodioxin-6-yl)-4-methyl-1H-imidazol-2-yl]-4-methyl-1-piperidyl]-6-methyl-7H-pyrrolo[2,3-d]pyrimidine], the IC50 lay in the range of 1 to 10 µM.
Next, `Cc1cc2c(N3CCC(C)(c4nc(C)c(-c5ccc6c(c5)OC(F)(F)O6)[nH]4)CC3)ncnc2[nH]1` [P-3152, 4-[4-[5-(2,2-difluoro-1,3-benzodioxol-5-yl)-4-methyl-1H-imidazol-2-yl]-4-methyl-1-piperidyl]-6-methyl-7H-pyrrolo[2,3-d]pyrimidine]: 1 to 10 µM.
With `COc1ccc(-c2[nH]c(C3(C)CCN(c4ncnc5[nH]c(-c6cnn(C(F)F)c6)cc45)CC3)nc2C)cc1` [P-3153, 6-[1-(difluoromethyl)pyrazol-4-yl]-4-[4-[5-(4-methoxyphenyl)-4-methyl-1H-imidazol-2-yl]-4-methyl-1-piperidyl]-7H-pyrrolo[2,3-d]pyrimidine] the figure was 0.0001 to 1 µM.
Next, `COc1ccc(-c2[nH]c(C3(C)CCN(c4ncnc5[nH]c(-c6cnn(C(F)F)c6)cc45)CC3)nc2C)cc1C` [P-3154, 6-[1-(difluoromethyl)pyrazol-4-yl]-4-[4-[5-(4-methoxy-3-methyl-phenyl)-4-methyl-1H-imidazol-2-yl]-4-methyl-1-piperidyl]-7H-pyrrolo[2,3-d]pyrimidine]: 0.0001 to 1 µM; `Cc1nc(C2(C)CCN(c3ncnc4[nH]c(-c5cnn(C(F)F)c5)cc34)CC2)[nH]c1-c1ccc2c(c1)OCO2` [P-3155, 4-[4-[5-(1,3-benzodioxol-5-yl)-4-methyl-1H-imidazol-2-yl]-4-methyl-1-piperidyl]-6-[1-(difluoromethyl)pyrazol-4-yl]-7H-pyrrolo[2,3-d]pyrimidine]: 0.0001 to 1 µM; `COc1ccc(-c2[nH]c(C3(C)CCN(c4ncnc5[nH]c(-c6ccc(OC)nc6)cc45)CC3)nc2C)cc1` [P-3156, 4-[4-[5-(4-methoxyphenyl)-4-methyl-1H-imidazol-2-yl]-4-methyl-1-piperidyl]-6-(6-methoxy-3-pyridyl)-7H-pyrrolo[2,3-d]pyrimidine]: 0.0001 to 1 µM.
In turn, `COc1ccc(-c2cc3c(N4CCC(C)(c5nc(C)c(-c6ccc(OC)c(C)c6)[nH]5)CC4)ncnc3[nH]2)cn1` [P-3157, 4-[4-[5-(4-methoxy-3-methyl-phenyl)-4-methyl-1H-imidazol-2-yl]-4-methyl-1-piperidyl]-6-(6-methoxy-3-pyridyl)-7H-pyrrolo[2,3-d]pyrimidine] displayed a half-inhibitory concentration (IC50) of 0.0001 to 1 µM.
The compound `COc1ccc(-c2cc3c(N4CCC(C)(c5nc(C)c(-c6ccc7c(c6)OCO7)[nH]5)CC4)ncnc3[nH]2)cn1` [P-3158, 4-[4-[5-(1,3-benzodioxol-5-yl)-4-methyl-1H-imidazol-2-yl]-4-methyl-1-piperidyl]-6-(6-methoxy-3-pyridyl)-7H-pyrrolo[2,3-d]pyrimidine] had an IC50 of 0.0001 to 1 µM.
As to `Cc1nc(C2(C)CCN(c3ncnc4[nH]c(-c5ccc(C#N)cc5)cc34)CC2)[nH]c1-c1ccc2c(c1)OCO2` [P-3159, 4-[4-[4-[5-(1,3-benzodioxol-5-yl)-4-methyl-1H-imidazol-2-yl]-4-methyl-1-piperidyl]-7H-pyrrolo[2,3-d]pyrimidin-6-yl]benzonitrile], the IC50 is 0.0001 to 1 µM.
Next, `CCOc1ccc(-c2[nH]c(C3(C)CCN(c4ncnc5[nH]c(-c6ccc(C#N)cc6)cc45)CC3)nc2C)cc1C` [P-3160, 4-[4-[4-[5-(4-ethoxy-3-methyl-phenyl)-4-methyl-1H-imidazol-2-yl]-4-methyl-1-piperidyl]-7H-pyrrolo[2,3-d]pyrimidin-6-yl]benzonitrile]: 0.0001 to 1 µM; `CCOc1ccc(-c2[nH]c(C3(C)CCN(c4ncnc5[nH]c(-c6ccc(C#N)cc6)cc45)CC3)nc2C)cc1` [P-3161, 4-[4-[4-[5-(4-ethoxyphenyl)-4-methyl-1H-imidazol-2-yl]-4-methyl-1-piperidyl]-7H-pyrrolo[2,3-d]pyrimidin-6-yl]benzonitrile]: 0.0001 to 1 µM; `Cc1nc(C2CCN(c3ncnc4[nH]c(-c5ccc(C#N)cc5)cc34)CC2)[nH]c1-c1ccc(C(F)F)cc1` [P-3162, 4-[4-[4-[5-[4-(difluoromethyl)phenyl]-4-methyl-1H-imidazol-2-yl]-1-piperidyl]-7H-pyrrolo[2,3-d]pyrimidin-6-yl]benzonitrile]: 1 to 10 µM.
Next, `COc1ccc(-c2[nH]c(C3(C)CCN(c4ncnc5[nH]c(-c6ccc(C#N)cc6)cc45)CC3)nc2C)cc1F` [P-3163, 4-[4-[4-[5-(3-fluoro-4-methoxy-phenyl)-4-methyl-1H-imidazol-2-yl]-4-methyl-1-piperidyl]-7H-pyrrolo[2,3-d]pyrimidin-6-yl]benzonitrile]: 0.0001 to 1 µM; `Cc1nc(C2(C)CCN(c3ncnc4[nH]c(-c5ccc(C#N)cc5)cc34)CC2)[nH]c1-c1ccc(C(F)F)cc1` [P-3164, 4-[4-[4-[5-[4-(difluoromethyl)phenyl]-4-methyl-1H-imidazol-2-yl]-4-methyl-1-piperidyl]-7H-pyrrolo[2,3-d]pyrimidin-6-yl]benzonitrile]: 0.0001 to 1 µM.
Next, `Cc1cc2c(N3CCC(C)(c4nc(C)c(-c5ccc(C(F)(F)F)cc5)[nH]4)CC3)ncnc2[nH]1` [P-3165, 6-methyl-4-[4-methyl-4-[4-methyl-5-[4-(trifluoromethyl)phenyl]-1H-imidazol-2-yl]-1-piperidyl]-7H-pyrrolo[2,3-d]pyrimidine]: 1 to 10 µM; `COc1cccc(-c2[nH]c(C3(C)CCN(c4ncnc5[nH]c(C)cc45)CC3)nc2C)c1` [P-3166, 4-[4-[5-(3-methoxyphenyl)-4-methyl-1H-imidazol-2-yl]-4-methyl-1-piperidyl]-6-methyl-7H-pyrrolo[2,3-d]pyrimidine]: 1 to 10 µM; `COc1cccc(-c2[nH]c(C3(C)CCN(c4ncnc5[nH]c(-c6ccc(C#N)cc6)cc45)CC3)nc2C)c1` [P-3167, 4-[4-[4-[5-(3-methoxyphenyl)-4-methyl-1H-imidazol-2-yl]-4-methyl-1-piperidyl]-7H-pyrrolo[2,3-d]pyrimidin-6-yl]benzonitrile]: 0.0001 to 1 µM.
With `COc1cccc(-c2[nH]c(C3(C)CCN(c4ncnc5[nH]c(-c6cnn(C(F)F)c6)cc45)CC3)nc2C)c1` [P-3168, 6-[1-(difluoromethyl)pyrazol-4-yl]-4-[4-[5-(3-methoxyphenyl)-4-methyl-1H-imidazol-2-yl]-4-methyl-1-piperidyl]-7H-pyrrolo[2,3-d]pyrimidine], the IC50 fell in the range of 0.0001 to 1 µM.
Next, `COc1cccc(-c2[nH]c(C3(C)CCN(c4ncnc5[nH]c(-c6ccc(OC)nc6)cc45)CC3)nc2C)c1` [P-3169, 4-[4-[5-(3-methoxyphenyl)-4-methyl-1H-imidazol-2-yl]-4-methyl-1-piperidyl]-6-(6-methoxy-3-pyridyl)-7H-pyrrolo[2,3-d]pyrimidine]: 0.0001 to 1 µM.
